Results taken from ChEMBL document CHEMBL3046897, “Synthesis of 3-{4-[4-dimethylamino-6-(4-methyl-2-oxo-2H-chromen-7-yloxy)-[1,3,5]triazin-2-ylamino]-phenyl}-2-phenyl-5-(4-pyridin-2-yl-piperazin-1-ylmethyl)-thiazolidin-4-one and their biological evaluation” (2012).
Values after ≈ are worked out from the molar mass of the structure shown.

Key:
Type in all cases: functional
[1] = tested on: Proteus vulgaris; experiment: Antibacterial activity against Proteus vulgaris at 100 ug/disk after 24 hr by paper disk diffusion method; conditions: read-out: IZ
[2] = tested on: Shigella flexneri; experiment: Antibacterial activity against Shigella flexneri after 24 hr by agar streak dilution method
[3] = tested on: Pseudomonas aeruginosa; experiment: Antibacterial activity against Pseudomonas aeruginosa after 24 hr by agar streak dilution method
[4] = tested on: Aspergillus clavatus; experiment: Antifungal activity against Aspergillus clavatus at 100 ug/disc after 48 hr by paper disk diffusion method; conditions: read-out: IZ
[5] = tested on: Salmonella typhi; experiment: Antibacterial activity against Salmonella enterica subsp. enterica serovar Typhi at 100 ug/disk after 24 hr by paper disk diffusion method; conditions: read-out: IZ
[6] = tested on: Aspergillus clavatus; experiment: Antifungal activity against Aspergillus clavatus after 48 hr by agar streak dilution method
[7] = tested on: Pseudomonas aeruginosa; experiment: Antibacterial activity against Pseudomonas aeruginosa at 100 ug/disk after 24 hr by paper disk diffusion method; conditions: read-out: IZ
[8] = tested on: Salmonella typhi; experiment: Antibacterial activity against Salmonella enterica subsp. enterica serovar Typhi after 24 hr by agar streak dilution method
[9] = tested on: Klebsiella pneumoniae; experiment: Antibacterial activity against Klebsiella pneumoniae at 100 ug/disk after 24 hr by paper disk diffusion method; conditions: read-out: IZ
[10] = tested on: Candida albicans; experiment: Antifungal activity against Candida albicans after 48 hr by agar streak dilution method
[11] = tested on: Aspergillus fumigatus; experiment: Antifungal activity against Aspergillus fumigatus after 48 hr by agar streak dilution method
[12] = tested on: Aspergillus niger; experiment: Antifungal activity against Aspergillus niger at 100 ug/disk after 48 hr by paper disk diffusion method; conditions: read-out: IZ
[13] = tested on: Escherichia coli; experiment: Antibacterial activity against Escherichia coli after 24 hr by agar streak dilution method
[14] = tested on: Bacillus subtilis; experiment: Antibacterial activity against Bacillus subtilis at 100 ug/disk after 24 hr by paper disk diffusion method; conditions: read-out: IZ
[15] = tested on: Staphylococcus aureus; experiment: Antibacterial activity against Staphylococcus aureus after 24 hr by agar streak dilution method
[16] = tested on: Shigella flexneri; experiment: Antibacterial activity against Shigella flexneri at 100 ug/disc after 24 hr by paper disk diffusion method; conditions: read-out: IZ
[17] = tested on: Proteus vulgaris; experiment: Antibacterial activity against Proteus vulgaris after 24 hr by agar streak dilution method
[18] = tested on: Aspergillus fumigatus; experiment: Antifungal activity against Aspergillus fumigatus at 100 ug/disc after 48 hr by paper disk diffusion method; conditions: read-out: IZ
[19] = tested on: Bacillus subtilis; experiment: Antibacterial activity against Bacillus subtilis after 24 hr by agar streak dilution method
[20] = tested on: Candida albicans; experiment: Antifungal activity against Candida albicans at 100 ug/disk after 48 hr by paper disk diffusion method; conditions: read-out: IZ
[21] = tested on: Staphylococcus aureus; experiment: Antibacterial activity against Staphylococcus aureus at 100 ug/disc after 24 hr by paper disk diffusion method; conditions: read-out: IZ
[22] = tested on: Klebsiella pneumoniae; experiment: Antibacterial activity against Klebsiella pneumoniae after 24 hr by agar streak dilution method
[23] = tested on: Aspergillus niger; experiment: Antifungal activity against Aspergillus niger after 48 hr by agar streak dilution method
[24] = tested on: Escherichia coli; experiment: Antibacterial activity against Escherichia coli at 100 ug/disk after 24 hr by paper disk diffusion method; conditions: read-out: IZ

| Structure (SMILES) | zone of inhibition at 100 µg/disc [1] [mm] | MIC [2] [µg/mL] | MIC [3] [µg/mL] | zone of inhibition at 100 µg/disc [4] [mm] | zone of inhibition at 100 µg/disc [5] [mm] | MIC [6] [µg/mL] | zone of inhibition at 100 µg/disc [7] [mm] | MIC [8] [µg/mL] | zone of inhibition at 100 µg/disc [9] [mm] | MIC [10] [µg/mL] | MIC [11] [µg/mL] | zone of inhibition at 100 µg/disc [12] [mm] | MIC [13] [µg/mL] | zone of inhibition at 100 µg/disc [14] [mm] | MIC [15] [µg/mL] | zone of inhibition at 100 µg/disc [16] [mm] | MIC [17] [µg/mL] | zone of inhibition at 100 µg/disc [18] [mm] | MIC [19] [µg/mL] | zone of inhibition at 100 µg/disc [20] [mm] | further results |
| --- | --- | --- | --- | --- | --- | --- | --- | --- | --- | --- | --- | --- | --- | --- | --- | --- | --- | --- | --- | --- | --- |
| Cc1cc(=O)oc2cc(Oc3nc(Nc4ccc(N5C(=O)CSC5c5ccccc5Br)cc4)nc(N(C)C)n3)ccc12 (stereo not given) | 16 | 100 (≈ 155 µM) | 50 (≈ 77.5 µM) | 20 | 12 | 50 (≈ 77.5 µM) | 20 | 100 (≈ 155 µM) | 13 | 25 (≈ 38.7 µM) | 25 (≈ 38.7 µM) | 19 | 100 (≈ 155 µM) | 20 | 50 (≈ 77.5 µM) | 10 | 50 (≈ 77.5 µM) | 23 | 50 (≈ 77.5 µM) | 21 | zone of inhibition at 100 µg/disc [21]: 17 mm; MIC [22]: 100 µg/mL (≈ 155 µM); MIC [23]: 100 µg/mL (≈ 155 µM); zone of inhibition at 100 µg/disc [24]: 17 mm |
| Cc1cc(=O)oc2cc(Oc3nc(Nc4ccc(N5C(=O)C(CN6CCN(c7ccccn7)CC6)SC5c5ccc(Cl)cc5Cl)cc4)nc(N(C)C)n3)ccc12 (stereo not given) | 21 | 25 (≈ 30.8 µM) | 50 (≈ 61.7 µM) | 23 | 18 | 25 (≈ 30.8 µM) | 18 | 50 (≈ 61.7 µM) | 21 | 50 (≈ 61.7 µM) | 50 (≈ 61.7 µM) | 18 | 25 (≈ 30.8 µM) | 23 | 25 (≈ 30.8 µM) | 20 | 12.5 (≈ 15.4 µM) | 19 | 12.5 (≈ 15.4 µM) | 20 | zone of inhibition at 100 µg/disc [21]: 22 mm; MIC [22]: 25 µg/mL (≈ 30.8 µM); MIC [23]: 50 µg/mL (≈ 61.7 µM); zone of inhibition at 100 µg/disc [24]: 19 mm |
| COc1ccc(C2SCC(=O)N2c2ccc(Nc3nc(Oc4ccc5c(C)cc(=O)oc5c4)nc(N(C)C)n3)cc2)cc1 (stereo not given) | 18 | 100 (≈ 168 µM) | 100 (≈ 168 µM) | 16 | 19 | 100 (≈ 168 µM) | 15 | 50 (≈ 83.8 µM) | 17 | 50 (≈ 83.8 µM) | 50 (≈ 83.8 µM) | 19 | 100 (≈ 168 µM) | 16 | 50 (≈ 83.8 µM) | 13 | 50 (≈ 83.8 µM) | 17 | 100 (≈ 168 µM) | 20 | zone of inhibition at 100 µg/disc [21]: 18 mm; MIC [22]: 50 µg/mL (≈ 83.8 µM); MIC [23]: 50 µg/mL (≈ 83.8 µM); zone of inhibition at 100 µg/disc [24]: 12 mm |
| COc1ccc(C2SC(CN3CCN(c4ccccn4)CC3)C(=O)N2c2ccc(Nc3nc(Oc4ccc5c(C)cc(=O)oc5c4)nc(N(C)C)n3)cc2)cc1 (stereo not given) | 20 | 100 (≈ 130 µM) | 100 (≈ 130 µM) | 19 | 22 | 50 (≈ 64.8 µM) | 18 | 25 (≈ 32.4 µM) | 19 | 25 (≈ 32.4 µM) | 25 (≈ 32.4 µM) | 22 | 100 (≈ 130 µM) | 19 | 25 (≈ 32.4 µM) | 17 | 50 (≈ 64.8 µM) | 20 | 25 (≈ 32.4 µM) | 23 | zone of inhibition at 100 µg/disc [21]: 21 mm; MIC [22]: 50 µg/mL (≈ 64.8 µM); MIC [23]: 25 µg/mL (≈ 32.4 µM); zone of inhibition at 100 µg/disc [24]: 16 mm |
| Cc1cc(=O)oc2cc(Oc3nc(Nc4ccc(N5C(=O)C(CN6CCN(c7ccccn7)CC6)SC5c5ccc(O)cc5O)cc4)nc(N(C)C)n3)ccc12 (stereo not given) | 22 | 6.25 (≈ 8.08 µM) | 25 (≈ 32.3 µM) | 22 | 28 | 12.5 (≈ 16.2 µM) | 20 | 6.25 (≈ 8.08 µM) | 27 | 6.25 (≈ 8.08 µM) | 12.5 (≈ 16.2 µM) | 21 | 12.5 (≈ 16.2 µM) | 23 | 6.25 (≈ 8.08 µM) | 26 | 25 (≈ 32.3 µM) | 23 | 12.5 (≈ 16.2 µM) | 27 | zone of inhibition at 100 µg/disc [21]: 26 mm; MIC [22]: 6.25 µg/mL (≈ 8.08 µM); MIC [23]: 25 µg/mL (≈ 32.3 µM); zone of inhibition at 100 µg/disc [24]: 23 mm |
| Cc1cc(=O)oc2cc(Oc3nc(Nc4ccc(N5C(=O)C(CN6CCN(c7ccccn7)CC6)SC5c5ccc(F)cc5)cc4)nc(N(C)C)n3)ccc12 (stereo not given) | 22 | 25 (≈ 32.9 µM) | 6.25 (≈ 8.23 µM) | 26 | 19 | 6.25 (≈ 8.23 µM) | 26 | 50 (≈ 65.8 µM) | 18 | 6.25 (≈ 8.23 µM) | 12.5 (≈ 16.5 µM) | 29 | 25 (≈ 32.9 µM) | 23 | 6.25 (≈ 8.23 µM) | 21 | 12.5 (≈ 16.5 µM) | 21 | 12.5 (≈ 16.5 µM) | 27 | zone of inhibition at 100 µg/disc [21]: 28 mm; MIC [22]: 50 µg/mL (≈ 65.8 µM); MIC [23]: 6.25 µg/mL (≈ 8.23 µM); zone of inhibition at 100 µg/disc [24]: 20 mm |
| Cc1ccc(/C=N/c2ccc(Nc3nc(Oc4ccc5c(C)cc(=O)oc5c4)nc(N(C)C)n3)cc2)cc1 | 11 | 50 (≈ 98.7 µM) | 50 (≈ 98.7 µM) | 16 | 17 | 100 (≈ 197 µM) | 18 | 50 (≈ 98.7 µM) | 10 | 50 (≈ 98.7 µM) | 100 (≈ 197 µM) | 17 | 100 (≈ 197 µM) | 17 | 100 (≈ 197 µM) | 18 | 100 (≈ 197 µM) | 15 | 50 (≈ 98.7 µM) | 17 | zone of inhibition at 100 µg/disc [21]: 16 mm; MIC [22]: 100 µg/mL (≈ 197 µM); MIC [23]: 50 µg/mL (≈ 98.7 µM); zone of inhibition at 100 µg/disc [24]: < 10 mm |
| Cc1cc(=O)oc2cc(Oc3nc(Nc4ccc(N5C(=O)C(CN6CCN(c7ccccn7)CC6)SC5c5ccccc5Br)cc4)nc(N(C)C)n3)ccc12 (stereo not given) | 19 | 100 (≈ 122 µM) | 25 (≈ 30.5 µM) | 23 | 14 | 12.5 (≈ 15.2 µM) | 22 | 100 (≈ 122 µM) | 17 | 12.5 (≈ 15.2 µM) | 6.25 (≈ 7.61 µM) | 25 | 50 (≈ 60.9 µM) | 22 | 50 (≈ 60.9 µM) | 15 | 50 (≈ 60.9 µM) | 27 | 25 (≈ 30.5 µM) | 25 | zone of inhibition at 100 µg/disc [21]: 20 mm; MIC [22]: 50 µg/mL (≈ 60.9 µM); MIC [23]: 25 µg/mL (≈ 30.5 µM); zone of inhibition at 100 µg/disc [24]: 20 mm |
| Cc1cc(=O)oc2cc(Oc3nc(Nc4ccc(/N=C/c5ccc(Cl)c(Cl)c5)cc4)nc(N(C)C)n3)ccc12 | 12 | 100 (≈ 178 µM) | 50 (≈ 89.1 µM) | 15 | 14 | 100 (≈ 178 µM) | 16 | 100 (≈ 178 µM) | 12 | 100 (≈ 178 µM) | 100 (≈ 178 µM) | < 10 | 100 (≈ 178 µM) | 15 | 100 (≈ 178 µM) | 15 | 100 (≈ 178 µM) | 12 | 100 (≈ 178 µM) | 10 | zone of inhibition at 100 µg/disc [21]: 13 mm; MIC [22]: 100 µg/mL (≈ 178 µM); MIC [23]: 100 µg/mL (≈ 178 µM); zone of inhibition at 100 µg/disc [24]: 11 mm |
| COc1ccc(C2SC(CN3CCN(c4ccccn4)CC3)C(=O)N2c2ccc(Nc3nc(Oc4ccc5c(C)cc(=O)oc5c4)nc(N(C)C)n3)cc2)cc1OC (stereo not given) | 15 | 50 (≈ 62.3 µM) | 100 (≈ 125 µM) | 17 | 17 | 50 (≈ 62.3 µM) | 15 | 50 (≈ 62.3 µM) | 11 | 100 (≈ 125 µM) | 100 (≈ 125 µM) | 19 | 100 (≈ 125 µM) | 17 | 25 (≈ 31.2 µM) | 19 | 100 (≈ 125 µM) | 13 | 50 (≈ 62.3 µM) | < 10 | zone of inhibition at 100 µg/disc [21]: 20 mm; MIC [22]: 100 µg/mL (≈ 125 µM); MIC [23]: 50 µg/mL (≈ 62.3 µM); zone of inhibition at 100 µg/disc [24]: 13 mm |
